Laboratory results taken from patent US9901573B2, “Compositions, methods, and kits for regulating energy metabolism” (NuSirt Sciences, Inc., priority 2012, dated 2018).
Marks after values point to notes of the source that are not given here.

Columns and labels:
Sirt1 = Sirt1 protein expression Western blot in myotubes; type: cell-based, mouse; details: C2C12 myotubes, FIG. 12
Protocol: (§1) Cell Culture: C2C12 and 3T3-L1 preadipocytes (American Type Culture Collection) were plated at a density of 8000 cells/cm^2 (10 cm^2 dish) and grown in Dulbecco's modified eagle's medium (DMEM) containing 10% fetal bovine serum (FBS), and antibiotics (growth medium) at 37° C. in 5% CO2. Confluent 3T3-L1 preadipocytes were induced to differentiate with a standard differentiation medium consisting of DMEM medium supplemented with 10% FBS, 250 nM dexamethasone, 0.5 mM 3-Isobutyl-1-methylxanthine (IBMX) and 1% penicillin-streptomycin. Preadipocytes were maintained in this differentiation medium for 3 days and subsequently cultured in growth medium. Cultures were re-fed every 2-3 days to allow >90% cells to reach fully differentiation before conducting chemical treatment. […]
Western blot: The Phospho-AMPKα (Thr172)- and Sirt1 (mouse specific)-antibody was obtained from Cell Signaling (Danvers, Mass.). […] Protein was measured by BCA kit (Thermo Scientific). […] Visualization and chemiluminescent detection was conducted using BioRad ChemiDoc instrumentation and software (Bio-Rad Laboratories, Hercules, Calif.) and band intensity was assessed using Image Lab 4.0 (Bio-Rad Laboratories, Hercules, Calif.), with correction for background and loading controls. P-AMPK was detected at 61-66 kDA and Sirt1 was detected at 104-115 kDA.

3T3-L1 adipocytes [1] = assay: Fatty acid oxidation (O2 consumption response to palmitate) in adipocytes; type: cell-based; details: FIG. 8, % change from control
Protocol: as §1
Fatty acid oxidation: Cellular oxygen consumption was measured using a Seahorse Bioscience XF24 analyzer (Seahorse Bioscience, Billerica, Mass.) in 24-well plates at 37° C., as described by Feige et al (1) with slight modifications. […] Data for each sample were normalized to the pre-palmitate injection baseline for that sample and expressed as % change from that baseline. […] The area under of the curve of O2 consumption change from baseline for each sample was then calculated and used for subsequent analysis.

3T3-L1 adipocytes [2] = assay: Intracellular Ca2+ by fura-2 imaging in adipocytes; type: cell-based
Protocol: Cell culture: 3T3-L1 pre-adipocytes were incubated at a density of 8000 cells/cm^2 (10 cm^2 dish) and grown in the absence of insulin in Dulbecco's modified Eagle's medium (DMEM) containing 10% FBS and antibiotics (1% penicillin-streptomycin)(adipocyte medium) at 37° C. in 5% CO2 in air. Confluent pre-adipocytes were induced to differentiate with a standard differentiation medium consisting of DMEM-F10 (1:1, vol/vol) medium supplemented with 1% fetal bovine serum (FBS), 250 nM dexamethasone (DEXA), isobutylmethylxanthine (IBMX) (0.5 mM) and antibiotics. Pre-adipocytes were maintained in this differentiation medium for 3 days (unless specifically indicated) and subsequently cultured in adipocyte medium. Cultures were re-fed every 2-3 days to allow 90% cells to reach fully differentiation before treatment.
Intracellular Ca^2+ ([Ca^2+]i): [Ca^2+]i was measured using a fura-2 dual wavelength fluorescence imaging system. Adipocytes were plated and differentiated in 35 mm dishes with glass coverslips (P35G-0-14-C, MatTek Corporation). Prior to [Ca^2+]i measurement, cells were preincubated in serum-free medium overnight and rinsed with Hepes Balanced Salt Solution (HBSS) containing the following components (in mM): NaCl 138, CaCl2 1.8, MgSO4 0.8, NaH2PO4 0.9, NaHCO3 4, glucose 5, glutamine 6, Hepes 20, and bovine serum albumin 1%. Cells were loaded with fura-2 acetoxymethyl ester (AM) (10 μM) in the same buffer for 2 hr at 37° C. in a dark incubator with 5% CO2. To remove extracellular dye, cells were rinsed with HBSS 3 times and then postincubated at room temperature for an additional 1 hr for complete hydrolysis of cytoplasmic fura-2 AM. The dishes with dye-loaded cells were mounted on the stage of Nikon TMS-F fluorescence inverted microscope with a Cohu 4915 CCD camera. Fluorescent images were captured alternatively at excitation wavelength of […] with an emission wavelength of 520 nm. [Ca^2]i was calculated using a standard ratio equation. Each analysis evaluated responses of 8-10 representative whole cells. Images were analyzed with InCytIm2 version 4.62 imaging software (Intracellular Imaging, Cincinnati, Ohio). Images were calibrated using a fura-2 calcium imaging calibration kit (Molecular Probes, Eugene, Oreg.) to create a calibration curve in solution, and cellular calibration was accomplished using digitonin (25 μM) and pH 8.7 Tris-EGTA (100 mM) to measure maximal and minimal [Ca^2+]i levels.

In the case of `CC(C)C[C@H](N)C(=O)O` [Leucine, leucine], the “Sirt1 protein levels, increase” value (Sirt1) is reported as “unaffected”, the “increase in fatty acid oxidation” value (3T3-L1 adipocytes [1]) is reported as 181% and the “Intracellular Ca2+” value (3T3-L1 adipocytes [2]; Leucine 0.25 mM) is reported as 75.2^b ± nM. For the same compound, the “Intracellular Ca2+” value (3T3-L1 adipocytes [2]; Leucine 0.5 mM) was 83.7^b ± nM.
